Key:
S49 mouse lymphoma cells = test: cAMP formation in S49 lymphoma cells (β-adrenergic agonist activity); type: cell-based; conditions: for EC50: Mus musculus, catecholamine derivative, read-out: KA (concentration of the catecholamine for approximately half maximal stimulation of cAMP concentration); for activity in words / activity greater than that of isoproterenol: S49 cell assay; for activity greater than that of isoproterenol: relative to isoproterenol
Source text: The in vitro testing of cAMP formation in S49 lymphoma cells is a well documented and accepted test for indicating and anticipating β-adrenergic activity in the mammalian body.
Such testing procedures and their significance has been set forth in a number of prior publications, e.g. Shear et al., J. Biol. Chem.; 251, 7572 (1976); Coffino, et al., In Vitro, 14, No. 1, 140 et.seq. (1978); and in Johnson, et al.; Molecular Pharmacology, 15, 16-27 (1978). The tests measure increased cyclic adenosine monophosphate (cAMP) concentration in the S49 cells. In Table 1, KA indicates the concentration of the catecholamine for approximately half maximal stimulation of cAMP concentration. Emax is a measure of the maximal response (cAMP concentration) of the S49 cells to the respective catecholamines regardless of how high the concentration of the catecholamines may become. The Table compares the response of the cells to the particular catecholamine derivatives with the cells' response to isoproterenol. Thus a measure of the relative biological activity can be obtained.

S49 cells = molecular target: T1, S49 cells (Mus musculus, UniProt P18762); test: KD in S49 cells; type: binding; conditions: relative to isoproterenol
T1 construct: endogenous in cells; host or cells: S49 lymphoma cells
T1 sequence (P18762 whole entry): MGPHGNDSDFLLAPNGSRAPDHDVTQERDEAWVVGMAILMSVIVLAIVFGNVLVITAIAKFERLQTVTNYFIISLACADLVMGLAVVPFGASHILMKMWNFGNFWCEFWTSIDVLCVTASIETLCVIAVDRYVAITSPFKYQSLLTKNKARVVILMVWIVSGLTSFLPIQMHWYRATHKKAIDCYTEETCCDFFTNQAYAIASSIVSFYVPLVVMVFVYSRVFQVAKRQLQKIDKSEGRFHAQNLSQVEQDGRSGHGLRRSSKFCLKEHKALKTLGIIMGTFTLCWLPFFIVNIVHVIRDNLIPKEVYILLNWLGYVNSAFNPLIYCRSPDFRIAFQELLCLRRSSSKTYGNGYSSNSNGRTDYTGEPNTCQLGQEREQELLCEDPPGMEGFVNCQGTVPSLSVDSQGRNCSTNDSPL
Source text: (§1) A large dependence of activity on the length of the methylene chain i.e., (CH2)n is seen with the toluides (Compounds 10-14). Of the compounds noted, peak activity is seen in the case of n=4 (Compound 12), which has an activity approximately two orders of magnitude greater than that of isoproterenol.

C6 cells = molecular target: T2, C6 cells (Rattus norvegicus, UniProt P18090); test: KD in C6 cells; type: binding; conditions: relative to isoproterenol
T2 construct: endogenous in cells; host or cells: C6 cells
T2 sequence (P18090 whole entry): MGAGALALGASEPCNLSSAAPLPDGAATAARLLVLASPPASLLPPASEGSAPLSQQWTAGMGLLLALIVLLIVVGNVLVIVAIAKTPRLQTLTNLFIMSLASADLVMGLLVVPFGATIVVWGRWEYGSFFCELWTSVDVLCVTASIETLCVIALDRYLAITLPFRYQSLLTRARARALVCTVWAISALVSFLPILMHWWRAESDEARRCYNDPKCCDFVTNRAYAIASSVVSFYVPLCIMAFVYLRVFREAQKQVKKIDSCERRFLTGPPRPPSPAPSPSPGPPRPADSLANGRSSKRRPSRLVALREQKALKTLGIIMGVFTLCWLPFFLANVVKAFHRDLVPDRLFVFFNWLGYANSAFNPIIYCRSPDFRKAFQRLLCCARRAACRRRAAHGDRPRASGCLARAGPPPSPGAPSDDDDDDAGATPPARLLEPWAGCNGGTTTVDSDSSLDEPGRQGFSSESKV
Source text: as §1

rats = test: blood pressure and heart rate changes in rats on administration of the drug; type: in vivo; conditions: rat, relative to isoproterenol

Structure (SMILES)	EC50 (S49 mouse lymphoma cells; S49 lymphoma cells) [nM]	other results
CC(C)NCC(O)c1ccc(O)c(O)c1 (racemic) [d,l-Isoproterenol, reference compound]		KA of d,l-isoproterenol (S49 mouse lymphoma cells; S49 lymphoma cells, comparison with the derivative on the same table line): 45 pM
CC(CCC(=O)O)NCC(O)c1ccc(O)c(O)c1 (stereo not shown) [Compound 6]	1600	
CC(CCCC(=O)O)NCC(O)c1ccc(O)c(O)c1 (stereo not shown) [Compound 7]	370	
CC(CCCCC(=O)O)NCC(O)c1ccc(O)c(O)c1 (stereo not drawn) [Compound 8, 6-(β-3,4-Dihydroxyphenyl-β-hydroxy)-ethylamino heptanoic acid]	350	
CCCCc1ccc(NC(=O)CCCCC(C)NCC(O)c2ccc(O)c(O)c2)cc1 (stereo not shown) [Compound 15]		activity greater than that of isoproterenol (S49 mouse lymphoma cells): at least 3 orders of magnitude
CC(CCCCC(=O)Nc1ccc(C(F)(F)F)cc1)NCC(O)c1ccc(O)c(O)c1 (stereo not shown) [Compound 17]		activity greater than that of isoproterenol (S49 mouse lymphoma cells): at least 3 orders of magnitude

The next lines start with results.

EC50 (S49 mouse lymphoma cells; S49 lymphoma cells) [nM]	Structure (SMILES)	other results
350	CC(CCCCCC(=O)O)NCC(O)c1ccc(O)c(O)c1 (stereo not shown) [Compound 9]	
3.5	Cc1ccc(NC(=O)CCC(C)NCC(O)c2ccc(O)c(O)c2)cc1 (stereo not shown) [Compound 10]	
8	Cc1ccc(NC(=O)CCCC(C)NCC(O)c2ccc(O)c(O)c2)cc1 (stereo not shown) [Compound 11]	
0.056	Cc1ccc(NC(=O)CCCCC(C)NCC(O)c2ccc(O)c(O)c2)cc1 (stereo not drawn) [Compound 12, 6-(β-3,4-dihydroxyphenyl-β-hydroxy)-ethylamino Heptanoic Acid p-Toluide]	activity in words (S49 mouse lymphoma cells): peak activity; KD lower than for isoproterenol (S49 cells): 2 orders of magnitude; KD lower than for isoproterenol (C6 cells): 2 orders of magnitude; times more active than isoproterenol (rats): 50-70 times
22	Cc1ccc(NC(=O)CCCCCC(C)NCC(O)c2ccc(O)c(O)c2)cc1 (stereo not shown) [Compound 14]	
13	COc1ccc(NC(=O)CCCCC(C)NCC(O)c2ccc(O)c(O)c2)cc1 (stereo not shown) [Compound 16]	activity in words (S49 mouse lymphoma cells): approximately the same activity as isoproterenol
0.18	CCCCNC(=O)CCCCC(C)NCC(O)c1ccc(O)c(O)c1 (stereo not shown) [Compound 19]	
0.26	CC(CCCCC(=O)NC1CCCCC1)NCC(O)c1ccc(O)c(O)c1 (stereo not shown) [Compound 20]	
